Among the test systems are OVCAR-8 ovarian; HOP-62 NSCLC; K-562 leukemia; COLO 205 colon; HT29 colon; SNB-75 CNS; SF-268 CNS; SW-620 colon; MDA-MB-435; ACHN renal.
What all share (test): NCI-60 cell line screen, 48 h

Molecules are shown by their SMILES. “And” between values parts separate entries of the source, which are not always exact repeats. Identical values can stand only once.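 Growth conditions: 96-well plates. Treatment: test compound, 48 hours, 5 concentrations. Analysis: linear interpolation between bracketing concentrations; unreached endpoints set to highest concentration. GI50: concentration for 50% inhibition of growth. TGI: total growth inhibition.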 Where only a bound is given, the exact number is not on record here.

Take `CC1(C)CC23C4COC(=O)C2CCC1C3CC4=O` (stereo not given): the TGI was found to be 46.6 µM in the assay with OVCAR-8 ovarian; 59.3 µM with HOP-62 NSCLC; 123 µM in the assay on K-562 leukemia; 33.6 µM in the assay on COLO 205 colon; 95.2 µM in the assay with HT29 colon; 57.6 µM in the assay on SNB-75 CNS. Further, the results for the TGI with SF-268 CNS and with SW-620 colon were 50.9 µM and 10.2 µM, respectively.
For the compound `COC1=C2CC(C)CC(OC)C(O)C(C)/C=C(\C)C(OC(N)=O)C(OC)/C=C\C=C(/C)C(=O)NC(=C(C=NC(C)(C)C)C1=O)C2=O` (stereo not given), the TGI in the assay with OVCAR-8 ovarian came to 73.6 µM; in the assay with HOP-62 NSCLC it was 41 µM; in the assay with K-562 leukemia, 6.26 µM; with COLO 205 colon, 10.6 µM; in the assay on HT29 colon it was 21 µM; in the assay with SNB-75 CNS it was 6.15 µM. Besides, the values for the TGI in the assay with SF-268 CNS and in the assay with SW-620 colon were 37.4 µM and 20.9 µM, respectively.
As for `CC[C@]1(O)C[C@H]2CN(CCc3c([nH]c4ccccc34)[C@@](C(=O)OC)(c3cc4c(cc3OC)N(C=O)[C@H]3[C@@](O)(C(=O)OC)[C@H](OC(C)=O)[C@]5(CC)C=CCN6CC[C@]43[C@@H]65)C2)C1`, the TGI in the assay on HOP-62 NSCLC is 56.9 µM and 142 µM; in the assay on COLO 205 colon it was 0.0463 µM and 0.22 µM; in the assay on HT29 colon, 27.2 µM; in the assay on SF-268 CNS, 8.13 µM and 31.2 µM and 79.2 µM; in the assay with SW-620 colon it was 141 µM and 18 µM. In addition, the GI50 in the assay with COLO 205 colon was 0.00159 µM; with MDA-MB-435, 0.0122 µM; in the assay on ACHN renal, 0.00846 µM.
As to `COc1cc2c(cc1OC)-c1cc3ccccc3c[n+]1CC2`, the TGI with OVCAR-8 ovarian, in the assay with HOP-62 NSCLC, in the assay with K-562 leukemia, in the assay on COLO 205 colon, with HT29 colon and in the assay on MDA-MB-435 was > 100 µM in each case. For the same compound, the TGI in the assay on ACHN renal, in the assay on SNB-75 CNS, in the assay on SF-268 CNS and with SW-620 colon was > 100 µM each time.
`O=C1OC(c2ccccc2)=N/C1=C\c1cccnc1`: the TGI in the assay with OVCAR-8 ovarian, in the assay with HOP-62 NSCLC, in the assay with K-562 leukemia, in the assay with HT29 colon, in the assay on MDA-MB-435 and with ACHN renal was > 100 µM each time. In addition, the TGI in the assay with SNB-75 CNS, in the assay with SF-268 CNS and with SW-620 colon was > 100 µM in each case.
In the case of `CCS(=O)(=O)N1CCC(C(C)n2c(C)c(C(=O)NCc3c(OC)cc(C)[nH]c3=O)c3ccccc32)CC1` (stereo not given), the GI50 in the assay with OVCAR-8 ovarian, in the assay on HOP-62 NSCLC, with COLO 205 colon, in the assay with HT29 colon, with MDA-MB-435 and in the assay with ACHN renal was > 100 µM each time. Besides, the GI50 in the assay with SNB-75 CNS was 36.3 µM; in the assay with SF-268 CNS, > 100 µM; in the assay with SW-620 colon, > 100 µM. The TGI with OVCAR-8 ovarian, with HOP-62 NSCLC, with COLO 205 colon, in the assay on HT29 colon, with MDA-MB-435 and in the assay on ACHN renal was > 100 µM throughout. The TGI in the assay with SNB-75 CNS, in the assay with SF-268 CNS and in the assay on SW-620 colon was > 100 µM each time.
For `N/C(=N\N=C/c1ccccc1O)NO`, the TGI was > 43.7 µM in the assay with OVCAR-8 ovarian; > 60.8 µM in the assay with HOP-62 NSCLC; > 77.6 µM with K-562 leukemia; > 27.4 µM in the assay on COLO 205 colon; > 42 µM with HT29 colon; > 29.9 µM in the assay with SNB-75 CNS. In addition, the TGI in the assay on SF-268 CNS was 90.5 µM; with SW-620 colon, > 100 µM.
On to `Fc1ccc2[nH]cc(-c3nc(-c4c[nH]c5ncccc45)cs3)c2c1`, for which the GI50 in the assay with K-562 leukemia is 5.03 µM; in the assay with COLO 205 colon, 1.7 µM; in the assay with MDA-MB-435, 12.5 µM; in the assay on SNB-75 CNS, 1.58 µM; in the assay on SW-620 colon, > 100 µM. For the same compound, the TGI in the assay with K-562 leukemia, in the assay on COLO 205 colon, with MDA-MB-435, in the assay on SNB-75 CNS and with SW-620 colon was > 100 µM each time.
For the compound `CS(=O)(=O)c1ccc(/C=N/NC(N)=S)cc1`, the TGI in the assay with OVCAR-8 ovarian, with HOP-62 NSCLC, with K-562 leukemia, in the assay with COLO 205 colon, in the assay on HT29 colon and in the assay with MDA-MB-435 was > 100 µM throughout. Also, the TGI with ACHN renal, in the assay with SNB-75 CNS, in the assay with SF-268 CNS and in the assay on SW-620 colon was > 100 µM throughout.
Turning to `O=C1OC[C@@H]2[C@@H](O)CCCCCN12`, the TGI in the assay on OVCAR-8 ovarian, in the assay on HOP-62 NSCLC, with K-562 leukemia, in the assay with COLO 205 colon, in the assay on HT29 colon and in the assay on MDA-MB-435 was > 100 µM in each case. The TGI in the assay with ACHN renal, in the assay on SNB-75 CNS and in the assay with SW-620 colon was > 100 µM throughout.
Turning to `O=C(Nc1cccc(-n2ccc3c(NC(=O)c4ccccc4)nccc32)c1)c1ccc(N2CCOCC2)c(C(F)(F)F)c1`, the GI50 with OVCAR-8 ovarian is 0.055 µM; with HOP-62 NSCLC, 0.0536 µM; in the assay on K-562 leukemia it was 0.0387 µM; in the assay on HT29 colon, 0.038 µM; in the assay on MDA-MB-435, 0.0191 µM; in the assay on ACHN renal, 0.0853 µM. The GI50 is 0.023 µM in the assay on SNB-75 CNS, 0.0625 µM in the assay on SF-268 CNS and 0.0412 µM with SW-620 colon. The TGI with OVCAR-8 ovarian was > 100 µM; in the assay with HOP-62 NSCLC, > 94.7 µM; with K-562 leukemia, > 100 µM; with MDA-MB-435 it was 0.046 µM; in the assay with ACHN renal, > 63.5 µM; with SNB-75 CNS, 25.9 µM. For the same compound, the TGI in the assay with SF-268 CNS and with SW-620 colon was > 100 µM each time.

Values taken from PubChem BioAssay (NCI).
